Experimental data taken from US4027038A, “Complement inhibitors” (priority 1976, dated 1977).

How the values were obtained:
[1] = target: T1, activated human C1 (Homo sapiens, UniProt P09871); test: Test, Code 026 (C1 inhibitor); type: biochemical; details: In Vitro; serial two-fold dilution assay, higher well number indicates higher activity
T1 sequence (P09871 438-688 limits assumed): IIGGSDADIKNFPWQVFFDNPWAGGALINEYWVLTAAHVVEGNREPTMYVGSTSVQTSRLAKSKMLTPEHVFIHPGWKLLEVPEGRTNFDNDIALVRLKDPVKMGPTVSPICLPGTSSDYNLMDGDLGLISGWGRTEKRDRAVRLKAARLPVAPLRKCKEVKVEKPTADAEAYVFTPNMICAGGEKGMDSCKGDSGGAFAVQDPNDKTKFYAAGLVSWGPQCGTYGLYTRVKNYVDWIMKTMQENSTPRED
T1 sequence (P09871 16-437 limits assumed): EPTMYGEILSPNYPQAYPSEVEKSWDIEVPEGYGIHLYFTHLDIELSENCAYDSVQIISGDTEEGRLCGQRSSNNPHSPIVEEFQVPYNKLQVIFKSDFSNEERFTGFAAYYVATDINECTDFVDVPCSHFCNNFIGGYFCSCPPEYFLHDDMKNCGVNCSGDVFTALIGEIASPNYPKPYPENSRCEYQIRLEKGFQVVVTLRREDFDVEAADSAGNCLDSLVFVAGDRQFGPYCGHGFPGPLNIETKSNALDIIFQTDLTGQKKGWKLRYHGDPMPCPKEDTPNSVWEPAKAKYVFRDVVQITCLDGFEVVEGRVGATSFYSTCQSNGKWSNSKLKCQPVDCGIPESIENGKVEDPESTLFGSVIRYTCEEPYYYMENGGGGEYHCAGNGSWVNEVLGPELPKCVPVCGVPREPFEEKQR
Source text: (§1) This test measures the ability of activated human C1 to destroy fluid phase human C2 in the presence of C4 and appropriate dilutions of the test compound. An active inhibitor protects C2 from C1 and C4; (ii) Test, Code 035 (C3-C9 inhibitor). This test determines the ability of the late components of human complement (C3-C9 to lyse EAC 142 in the presence of appropriate dilutions of the test compound. An active inhibitor protects EAC 142 from lysis by human C3-C9; (ii) Test, Code 036 (C-Shunt inhibitor)-- In this test human erythrocytes rendered fragile are lysed in autologous serum via the shunt pathway activated by cobra venom factor in the presence of appropriate dilutions of the test compound. Inhibition of the shunt pathway results in failure of lysis; (iv) Forssman Vasculitis Test-- Here, the well known complement dependent lesion, Forssman vasculitis, is produced in guinea pigs by intradermal injection of rabbit anti-Forssman antiserum. The lesion is measured in terms of diameter, edema and hemorrhage and the extent to which a combined index of these is inhibited by prior intraperitoneal injection of the test compound at 200 mg/kg is then reported, unless otherwise stated; (v) Forssman Shock Test-- Lethal shock is produced in guinea pigs by an i.v. injection of anti-Forssman antiserum and the harmonic mean death time of treated guinea pigs is compared with that of simultaneous controls; (vi) Complement Level Reduction Test-- In this test, the above dosed guinea pigs, or other, are bled for serum and the complement level is determined in undiluted serum by the capillary tube method of U.S. Pat. No. 3,876,376 and compared to undosed control guinea pigs; and (vii) Cap 50 Test-- Here, appropriate amounts of the test compound are added to a pool of guinea pig serum in vitro, after which the undiluted serum capillary tube assay referred to above is run. The concentration of compound inhibiting 50% is reported.

[2] = tested on: late components of human complement (C3-C9); test: Test, Code 035 (C3-C9 inhibitor), lysis of EAC 142; type: biochemical; details: In Vitro; serial two-fold dilution assay, higher well number indicates higher activity
Source text: as §1

[3] = tested on: shunt pathway; test: Test, Code 036 (C-Shunt inhibitor), lysis of fragile human erythrocytes in autologous serum, cobra venom factor; type: biochemical; details: In Vitro; serial two-fold dilution assay, higher well number indicates higher activity
Source text: as §1

[4] = tested on: Forssman vasculitis; test: Forssman Vasculitis Test; details: In Vivo; guinea pigs; inhibition of combined index of lesion diameter, edema and hemorrhage; prior intraperitoneal injection at 200 mg/kg
Source text: as §1

[5] = tested on: complement level in undiluted serum; test: Complement Level Reduction Test; details: In Vivo; serum of dosed guinea pigs compared to undosed controls, capillary tube method
Source text: as §1

| Structure (SMILES) | 026 (C1 inhibitor), activity in wells [1] | 035 (C3-C9 inhibitor), activity in wells [2] | 036 (C-Shunt inhibitor), activity in wells [3] | Forssman [4] | % Reduction Complement [5] |
| --- | --- | --- | --- | --- | --- |
| O=C(Nc1cccc(C(=O)Nc2ccc3c(S(=O)(=O)[O-])cccc3c2S(=O)(=O)[O-])c1)Nc1cccc(C(=O)Nc2ccc3c(S(=O)(=O)[O-])cccc3c2S(=O)(=O)[O-])c1.[Na+].[Na+].[Na+].[Na+] [2,2'-[Ureylenebis(m-phenylenecarbonylimino)]di-1,5-naphthalenedisulfonic acid tetrasodium salt] | NEG | 1 wells | 1 wells | 10 | -18% |
| O=C(Nc1cccc(C(=O)Nc2ccc(S(=O)(=O)[O-])c3cccc(S(=O)(=O)[O-])c23)c1)Nc1cccc(C(=O)Nc2ccc(S(=O)(=O)[O-])c3cccc(S(=O)(=O)[O-])c23)c1.[Na+].[Na+].[Na+].[Na+] [4,4'-[Ureylenebis(m-phenylenecarbonylimino)]di-1,5-naphthalenedisulfonic acid tetrasodium salt] | 2 wells | NEG | NEG | 10 | -18% |
| O=C(Nc1cccc(C(=O)Nc2cc(S(=O)(=O)[O-])cc3cc(S(=O)(=O)[O-])ccc23)c1)Nc1cccc(C(=O)Nc2cc(S(=O)(=O)[O-])cc3cc(S(=O)(=O)[O-])ccc23)c1.[Na+].[Na+].[Na+].[Na+] [4,4'-[Ureylenebis(m-phenylenecarbonylimino)]di-2,7-naphthalenedisulfonic acid tetrasodium salt] | 3 wells | NEG | NEG | 0 | +4% |
| O=C(Nc1ccc(C(=O)Nc2ccc(S(=O)(=O)[O-])c3cccc(S(=O)(=O)[O-])c23)cc1)Nc1ccc(C(=O)Nc2ccc(S(=O)(=O)[O-])c3cccc(S(=O)(=O)[O-])c23)cc1.[Na+].[Na+].[Na+].[Na+] [4,4'-[Ureylenebis(p-phenylenecarbonylimino)]di-1,5-naphthalenedisulfonic acid tetrasodium salt] | NEG | NEG | NEG | 12 | +58% |
| O=C(Nc1cccc(C(=O)Nc2ccc3cc(S(=O)(=O)[O-])cc(S(=O)(=O)[O-])c3c2)c1)Nc1cccc(C(=O)Nc2ccc3cc(S(=O)(=O)[O-])cc(S(=O)(=O)[O-])c3c2)c1.[Na+].[Na+].[Na+].[Na+] [7,7'-[Ureylenebis(m-phenylenecarbonylimino)]di-1,3-naphthalenedisulfonic acid tetrasodium salt] | 3 wells | 1 wells | 1 wells | 8 | -33% |
